# Measurements reported in the OPERA property sets (Mansouri et al. 2018).
# Settings: not given
SMILES,melting point,boiling point,log10 vapour pressure (mmHg),ready biodegradability,log10 Henry constant (atm·m³/mol),log10 Koa,log10 Koc (L/kg),log10 biodegradation half-life (days)
Cn1c(=O)c2c(ncn2CN2CCOCC2)n(C)c1=O,177 °C,,,,,,,
CC(=O)OC(C)C#N (stereo unspecified),-75 °C,172 °C,,,,,,
CCc1ccccc1Cl,-82.7 °C,178 °C,,,,,,
N[C@H](CCC(=O)O)C(=O)O,201 °C,,,,,,,
ClC(I)I,-4 °C,,,,,,,
CCCCCCCCCCCCCO,32.5 °C,,-3.36,readily biodegradable,,,,
Cc1ccc(N=C=Nc2ccc(C)cc2)cc1,58.5 °C,,,,,,,
Clc1c(Cl)c(Cl)c2c(c1Cl)Oc1ccccc1O2,188 °C,,-7.32,,-4.7,9.7,,
C=CC(C)CCCC(C)C (stereo unspecified),,154 °C,,,,,,
O=C1c2ccccc2C(=O)c2c(O)ccc(O)c21,200 °C,,-7.61,,,,,
COC(=O)c1ccc(C(F)(F)F)nc1S(=O)(=O)[N]([Na])C(=O)Nc1nc(OC)cc(OC)n1,,,,,,,1.46,
CCOC(=O)Nc1ccc(NCc2ccc(F)cc2)nc1N,116 °C,,,,,,,
c1cc2c3c(ccc4c3c1CCC4)CCC2,133 °C,,,,,,,
Oc1ccc(Br)cc1,,,,not readily biodegradable,,,2.41,
COCN(COC)c1nc(N(COC)COC)nc(N(COC)COC)n1,,,,not readily biodegradable,,,,
CCS(=O)CCSP(=O)(OC)OC (stereo unspecified),,,-4.55,,,,1,
C=C(C)COC,,68 °C,,,,,,
CC(=O)C=Cc1ccccc1,41.8 °C,262 °C,-1.91,not readily biodegradable,,,,
c1ccc(-c2nc3ccccc3[nH]2)cc1,293 °C,,,,,,,
O=C(O)C=Cc1ccc(Br)cc1,263 °C,,,,,,,

SMILES,melting point,boiling point,log10 vapour pressure (mmHg),ready biodegradability,log10 Henry constant (atm·m³/mol),log10 Koa,log10 Koc (L/kg),log10 biodegradation half-life (days)
CCCCCCCCCCCCCCCCCCCCCC(N)=O,,,,not readily biodegradable,,,,
Nc1ccc(C(=O)O)cc1,188 °C,,,readily biodegradable,,,2.5,
Clc1ccc(/N=N/c2ccccc2)cc1,88 °C,,-5.7,,,,,
CCN(CC)C(=O)CSc1ccc(Cl)nn1,97 °C,,,not readily biodegradable,,,,
C=CC(O)CCC (stereo unspecified),,134 °C,,,,,,
FC(F)(Br)C(F)(F)Br,-110 °C,47.3 °C,2.51,not readily biodegradable,,,,
CNC[C@H](O)c1ccc(O)c(O)c1,212 °C,,,,,,,
O=C(O)COc1ccc(Cl)c(Cl)c1,139 °C,,,,,,,
CCOC(=O)CO,,160 °C,,,,,,
BrCCCCCCCCCCCCCCBr,50.4 °C,,,,,,,
CN(C)C(=O)C(c1ccccc1)c1ccccc1,135 °C,,-7.52,,,,2.32,
CC(C)(C)C(=O)O,35 °C,164 °C,-0.301,not readily biodegradable,-5.56,,,
FCCCCl,,80 °C,,,,,,
O=C(O)c1ccc(Cl)cc1Cl,164 °C,,,not readily biodegradable,,,,
CCOc1ccc(I)cc1,29 °C,250 °C,,,,,,
CCOC(=O)CC(=O)C(F)(F)F,,133 °C,,,,,,
CCCCC(C)C,-118 °C,90 °C,1.82,,,,,0.477
CC(=O)COC(C)=O,,171 °C,,,,,,
O=Cc1ccnc2ccccc12,51 °C,,,,,,,
C[C@]12C[C@H](O)[C@H]3[C@@H](CCC4=CC(=O)CC[C@@]43C)[C@@H]1CC[C@@H]2C(=O)CO,181 °C,,,,,,,

SMILES,melting point,boiling point,log10 vapour pressure (mmHg),ready biodegradability,log10 Henry constant (atm·m³/mol),log10 Koa,log10 Koc (L/kg),log10 biodegradation half-life (days)
CCC(=O)CC(C)=O,,160 °C,,,,,,
C=C1CC[C@H](O)C/C1=C/C=C1\CCC[C@]2(C)[C@@H]([C@H](C)CCCC(C)C)CC[C@@H]12,84.5 °C,,,,,,,
CCSC,-106 °C,66.7 °C,2.2,,,,,
CCc1ccccc1OC,,187 °C,,,,,,
CON(C)C(=O)Nc1ccc(Br)c(Cl)c1,96 °C,,-6.4,,,,2.7,
C1CCCNCC1,,138 °C,0.908,,-5.21,,,
CCC1CCC(=O)O1 (stereo unspecified),-18 °C,216 °C,,,,,,
Cc1cc([N+](=O)[O-])ccc1N,134 °C,,,,,,,
CCC(C)C,-160 °C,,2.84,,,,,
CNCC(O)c1ccc(O)cc1 (stereo unspecified),184 °C,,,,,,,
O=C1CCOCC1,,166 °C,,,,,,
CCCCCCCCCCCCCCCCCCCCCC(=O)OC,54 °C,,,,,,,
CCN(CC)CC#N,,170 °C,,,,,,
CCOCCOC(C)(C)C,,148 °C,,,,,,
CCC(O)c1ccccc1 (stereo unspecified),,219 °C,,,,,,
C[Si]1(c2ccccc2)O[Si](C)(c2ccccc2)O[Si](C)(c2ccccc2)O1 (stereo unspecified),100 °C,,,,,,,
O=C(OCC(=O)N1CCCCCC1)c1ccccc1,108 °C,,,,,,,
O=C(O)c1ccc[nH]1,,,-5.65,,,,,

# Same assay, conditions: fish
SMILES,log10 BCF,log10 biotransformation half-life (days)
ClCCOC(c1ccccc1)c1ccccc1,2.51,-0.07
ClC1=C(Cl)C2(Cl)C=CC1(Cl)C2(Cl)Cl,3.81,
COc1nn(CSP(=S)(OC)OC)c(=O)s1,0.74,-1.15
COP(=S)(OC)Oc1ccc(SC)c(C)c1,2.52,-0.36
Clc1c(Cl)c(Cl)c2c(c1Cl)Oc1ccccc1O2,3.46,1.02
c1cc2c3c(ccc4c3c1CCC4)CCC2,,0.42
Oc1ccc(Br)cc1,1.17,
COCN(COC)c1nc(N(COC)COC)nc(N(COC)COC)n1,0.54,
Brc1ccc(Oc2ccc(Br)c(Br)c2)cc1Br,6.29,
CC(C)(C)C(=O)O,0.36,
